Laboratory results taken from publication PMC8237038 (Acta Pharmacologica Sinica, 2021).
Each block holds one molecule with its values, some of them ahead of it.

What was measured:
[1] = target: T1, CYP3A (Homo sapiens, UniProt P08684); details: for inhibitory effects against CYP3A: microsomes
[2] = target: T1, CYP3A; assay: in vitro; details: microsomes
[3] = Pharmacokinetic interactions between HEJG and lopinavir in rats; details: lopinavir in rat plasma; for AUC(0-inf) / Cmax: male, Sprague-Dawley, rat, plasma, po, 160 mg/kg
[4] = system: CYP3A; assay: in vitro; details: human, human liver microsomes, pH 7.4, probe testosterone (6β-hydroxylation)
[5] = pH 7.4, Time-dependent inhibition IC50 Preincubation for 3 min
[6] = pH 7.4, Time-dependent inhibition IC50 Preincubation for 33 min
[7] = HEJG (3 g/kg, i.g.) + lopinavir (160 mg/kg, i.g.)
[8] = Water + lopinavir (160 mg/kg, i.g.), control group

T1 sequence (P08684 2-503): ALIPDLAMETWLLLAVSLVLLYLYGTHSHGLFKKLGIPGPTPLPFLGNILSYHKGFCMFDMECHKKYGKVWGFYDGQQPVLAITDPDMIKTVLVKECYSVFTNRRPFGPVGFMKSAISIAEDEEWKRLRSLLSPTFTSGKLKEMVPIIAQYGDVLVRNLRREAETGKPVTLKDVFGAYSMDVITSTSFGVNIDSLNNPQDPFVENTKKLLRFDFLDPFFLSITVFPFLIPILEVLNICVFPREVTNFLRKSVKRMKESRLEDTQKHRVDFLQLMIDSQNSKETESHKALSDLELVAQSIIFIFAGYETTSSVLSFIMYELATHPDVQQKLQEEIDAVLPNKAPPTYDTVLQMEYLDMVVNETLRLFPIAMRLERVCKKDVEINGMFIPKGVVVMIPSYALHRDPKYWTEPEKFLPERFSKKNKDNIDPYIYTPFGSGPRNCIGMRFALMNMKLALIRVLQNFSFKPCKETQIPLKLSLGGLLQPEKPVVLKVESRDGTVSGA

SMILES: Cc1cccc(C)c1OCC(=O)N[C@@H](Cc1ccccc1)[C@@H](O)C[C@H](Cc1ccccc1)NC(=O)[C@H](C(C)C)N1CCCNC1=O [lopinavir]
- t1/2 [3, 7]: 2.68 ± 0.45 h
- AUC(0-inf) [3, 7]: 10200 ± 1570 ng·h/mL
- AUC(0-inf) [3, 8]: 4190 ± 131 ng·h/mL
- Cmax [3, 7]: 1860 ± 215 ng/mL
- Cmax [3, 8]: 1280 ± 55 ng/mL

SMILES: O=C(O)/C=C/c1ccc(O)c(O)c1 [Caffeic acid]
- inhibitory effects against CYP3A [1]: weak inhibitory effects
- IC50 [2, 5]: > 100 µM
- IC50 [2, 6]: > 100 µM

SMILES: O=c1c(O)c(-c2ccc(O)c(O)c2)oc2cc(O)cc(O)c12 [Quercetin]
- IC50 [4]: 3.95 ± 0.31 µM

Other lines, results leading:

- inhibitory effects against CYP3A [1]: weak inhibitory effects
- IC50 [2, 5]: > 100 µM
- IC50 [2, 6]: > 100 µM
SMILES: O=C(/C=C/c1ccc(O)c(O)c1)O[C@@H]1C[C@](O)(C(=O)O)C[C@@H](O)[C@H]1O [Chlorogenic acid]

- IC50 shift ([2]; pH 7.4): 2.01
- IC50 [2, 5]: 13.1 ± 1.29 µM
- IC50 [2, 6]: 6.53 ± 0.31 µM
SMILES: O=c1c(O)c(-c2ccc(O)cc2)oc2cc(O)cc(O)c12 [Kaempferol]

- Ratio ([1]; constituents, IC50 3 min / 33 min preincubation): 3.20
- IC50 ([4]; Time-dependent inhibition IC50 Preincubation for 3 min, constituents, HLMs, 3 min preincubation): 25.9 ± 3.19 µM
- IC50 ([4]; Time-dependent inhibition IC50 Preincubation for 33 min, constituents, HLMs, 33 min preincubation): 8.08 ± 0.56 µM
SMILES: COc1cc(O)ccc1/C=C/C(=O)c1ccc(O)cc1 [Echinatin]
